According to patent US20100069302A1, “SPECIFIC THERAPY AND MEDICAMENT USING INTEGRIN LIGANDS FOR TREATING CANCER” (priority 2007, published 2010):
Values joined by “and” are separate entries in the source; they are usually repeats but may differ in a detail not shown here. Equal values may be shown once. “Also recorded” adds a separate entry of the source.

How the values were obtained:
[1] = test system: U251 human glioblastoma cells; experiment: Rat orthotopic glioblastoma model radiotherapy, cilengitide scheduling experiments; assay type: in vivo, NIH mu nude rats; settings: for Days Post Implant (survival): listed as Rt + EMD, 4 mg/kg
Experimental: NIH mu nude rats are anaesthetized, restrained, and injected intracerebrally 1 mm retro orbitally, 3 mm to the right of the bregma and at a depth of 2.5 mm with 5×10E5 U251 human glioblastoma cells suspended in 10 ul of culture medium, using a #2701 Hamilton syringe fitted with a 26 gauge needle, essentially as previously described (Engebraaten et al., 1999). After 14 days, cilengitide (4 mg/kg) is given as an intraperitoneal bolus in PBS, at various time (8 h, 4 h, 2 h, 1 h) prior to a single treatment with single, collimated, dorsal-ventral beam of 6 MV x-rays, so that 95-100% of the central axis dose of 25 Gy hit the tumor volume (Kim et al., 1999). Each of the 7 subsequent days the animals also received an identical i.p. bolus of cilengitide. The animals are maintained under ad libitum food and drink until they become moribund, or are sampled for tissue analysis (in the t-4 and t-8 h groups, where the animals are healthy past 230 days post tumor injection). A Kaplan-Meier survival curve is calculated and plotted (FIG. 1) from the raw data (Table 1). All animals in the RT monotherapy group died by 120 d.

[2] = test system: patients with recurrent glioblastoma (GBM); experiment: Phase IIa trial of cilengitide single agent therapy in patients with recurrent glioblastoma; assay type: in vivo, human
Experimental: Background: The present phase IIa study was designed to evaluate the safety, toxicity, and clinical activity of the cyclic RGD pentapeptide cilengitide ((=cyclo-(Arg-Gly-Asp-DPhe-NMe-Val)), an inhibitor of integrins αvβ3 and αvβ5, as a single agent at doses of 500 and 2000 mg in patients (pts) with recurrent glioblastoma (GBM).
Methods: In this multicenter, open-label, randomized, uncontrolled study, pts with GBM and measurable disease that had relapsed after previous therapy with temozolomide and radiotherapy were randomized to receive cilengitide at doses of either 500 mg or 2000 mg i.v., 2×/week, until progression.
Histopathology diagnosis and MRI imaging were subject to independent blinded review. The primary endpoint was Progression Free Survival (PFS) at 6 months (mths). Secondary endpoints included response, survival, time to disease progression, safety, tolerability and pharmacokinetics.

[3] = test system: patients with newly diagnosed glioblastoma (GBM); experiment: Phase I/IIa trial of cilengitide and temozolomide with concomitant radiotherapy, then maintenance, in newly diagnosed glioblastoma; assay type: in vivo, human
Experimental: Patients and methods: Fifty-two pts (PS 0-1: 92%, 2: 8%; median age 57 yrs) after biopsy (n=9/17%) or tumor resection (n=43/83%) were treated with standard TMZ/RT (Stupp et al. NEJM 2005). In addition Cilengitide (500 mg i.v., 2×/week) was started one week before TMZ/RT and given throughout for the duration of chemotherapy or until progression. Primary endpoint was progression free survival rate at 6 months (target: 65%). Patients were followed with MRI every 2 months. Histopathologic diagnosis and MRI imaging were independently reviewed, MGMT promoter methylation status was assessed in 45 (86.5%) pts.

NSCLC (A549) = experiment: Proliferation assay (vitronectin-coated plates, Alamar Blue); assay type: cell-based; settings: A549, 72 hours; concentration held constant in combination with chemotherapeutic agents; read-out: constant EC50 concentration of alpha V integrin blocker
Experimental: A549-DMEM containing 10% FCS (heat-inactivated) plus 2 mM glutamine,
(§1) Briefly, 2.5×10e4 cells/well in RPMI containing 0.5% BSA and 25 mM Hepes pH 7.4 attached to non-tissue culture treated 96-well plates coated with serially diluted vitronectin, fibronectin, fibrinogen and collagen I for 60 minutes at 37° C. After washing to remove unbound cells the relative cell number is determined by incubation with hexosaminidase substrate. The colormetric reaction is read at 405 nm in a Genios plate reader (SLT). Proliferation assay Non-tissue cultures treated 96 well plates are coated using 100 ul/well of a 2 ug/ml vitronectin solution in PBS incubated overnight at 4° C. Cells are plated at 5×10e3 in 100 ul cell culture medium (as described above for each cell line). […] Plates are incubated for 72 hours, after which relative cell number is determined by the addition of 20 ul/well Alamar Blue (Resazurin) (Nakayama et al. 1997). After 4 hours of incubation at 37° C. relative fluorescent intensity is read in a Genios plate reader (SLT) at 535/590 nm (excitation/emission).
(§2) Points are run in triplicate. Reagent blanks, containing media plus colormetric reagent without cells, are run on each plate. Blank values are subtracted from test values and are routinely 5-10% of uninhibited control values. […]

[4] = test system: Endothelial Cells (HUVEC); experiment: as above; assay type: cell-based; settings: 72 hours, concentration held constant in combination with chemotherapeutic agents, read-out: constant EC50 concentration of alpha V integrin blocker
Experimental: HUVEC-DMEM containing 10% FCS (heat-inactivated) plus 2 mM glutamine and 1 mM sodium pyruvate.
as §1, §2

various brain tumors = settings: cited from earlier work

CC(C)[C@H]1C(=O)N[C@@H](CCCN=C(N)N)C(=O)NCC(=O)N[C@@H](CC(=O)O)C(=O)N[C@H](Cc2ccccc2)C(=O)N1C [Cilengitide, cyclo-(Arg-Gly-Asp-DPhe-NMeVal)]
Days Post Implant (survival) ([1]; cilengitide bolus 4 mg/kg i.p. 1 hour pre-irradiation (Rt 25 Gy) plus 7 daily boluses, all Sick (moribund)): 112 days and 113 days and 130 days and 141 days | Days Post Implant (survival) ([1]; cilengitide bolus 4 mg/kg i.p. 2 hours pre-irradiation (Rt 25 Gy) plus 7 daily boluses, all Sick (moribund)): 120 days and 147 days and 162 days and 196 days | Days Post Implant (survival) ([1]; cilengitide bolus 4 mg/kg i.p. 4 hours pre-irradiation (Rt 25 Gy) plus 7 daily boluses, Healthy/Alive animals not dead at day shown): 238 days and 254 days | Days Post Implant (survival) ([1]; cilengitide bolus 4 mg/kg i.p. 8 hours pre-irradiation (Rt 25 Gy) plus 7 daily boluses, Healthy/Alive animals not dead at day shown): 287 days and 257 days | animals healthy, days post tumor injection ([1]; t-4 and t-8 h groups, cilengitide 4 mg/kg plus 25 Gy): > 230 days | median Overall Survival (mOS) ([2]; 500 mg arm, i.v. 2x/week): 6.5 mths | tumor control, dose comparison ([2]; 2000 mg 2x/week versus 500 mg, not statistically significant): trend towards better tumor control | 12 mth overall survival (OS) rate ([2]; 2000 mg arm, i.v. 2x/week): 37.5% | median Overall Survival (mOS) ([2]; 2000 mg arm, i.v. 2x/week): 9.9 mths | Treatment related NCI CTC grade 3 adverse events ([2]; at 500 mg, each in 1 patient): elevated liver enzymes; also recorded: arthralgia/myalgia | Treatment related NCI CTC grade 3 adverse events ([2]; at 2000 mg, in 1 patient): weight increase/edema | grade 4 therapy related AEs ([2]; both arms): No grade 4 therapy related AEs | pts who received 12 or more cycles of therapy ([2]; both arms, 10 pts (n=4 with 500 mg, n=6 with 2000 mg), 1 cycle=4 weeks): 12.3% | pts still progression-free and on treatment ([2]; both arms, six pts, at time abstract was issued): 7.4% | cerebral hemorrhage ([2]; possibly related either to the drug or to the disease): One CTC grade 2 cerebral hemorrhage | single agent activity ([2]; recurrent glioblastoma): advantageous single agent activity | tolerability ([2]; single agent therapy at two dose levels): tolerated well | haematological grade 3 and 4 toxicity: neutropenia ([3]; Cilengitide 500 mg plus TMZ/RT, 5/52): 9.6% | Treatment related non-hematologic grade 3 toxicities, patients ([3]; Cilengitide 500 mg plus TMZ/RT, n=3/52): 5.7% | PFS-6 rate ([3]; Cilengitide 500 mg plus TMZ/RT, subgroup with methylated MGMT promoter (23/52)): 91% | tolerability ([3]; combination of Cilengitide and TMZ/RT): well tolerated | other adverse event ([3]; one patient with a history of sigmoid diverticulosis): sigmoid perforation (grade 2) | EC50 (NSCLC (A549)): 6 nM | EC50 [4]: 0.2 nM | MTD in humans (various brain tumors; human, in vivo): no known MTD | tolerability (various brain tumors; human, in vivo): very well tolerated | response (various brain tumors; in some of the GBM patients): an indication of response was seen
